According to article PMC3731256, “Optimization of Substituted 6-Salicyl-4-Anilinoquinazoline Derivatives as Dual EGFR/HER2 Tyrosine Kinase Inhibitors” (PLoS ONE, 2013):

Tested on: A431 cells
Experiment: Antiproliferation WST-1 assay, A431
Assay type: cell-based, human
Settings: Homo sapiens, A-431, WST-1 assay; A431, overexpression of EGFR; read-out: Cellular IC50, A431
Procedure: (§1) WST-1 is better than MTT for analyzing cell proliferation, because it can be reduced to soluble formazan by dehydrogenase in mitochondria and has little toxicity to cells. Cell proliferation was determined using WST-1 dye (Beyotime Inst Biotech, China) according to manufacture’s instructions. Brieﬂy, 5 × 10^3 cells per well were seeded in a 96-well plate, grown at 37 ℃ for 24 h, and then placed in serum-starved conditions for a further 6 h. Subsequently, cells were treated with compounds (Table 1) at increasing concentrations in the presence of 10% FBS for 24 or 48h. After 10 µL WST-1 dye was added to each well, cells were incubated at 37 ℃ for 2 h and the absorbance was ﬁnally determined at 450 nm using a microplate reader.

`Oc1ccc(Cl)cc1CNc1ccc2ncnc(Nc3cccc(Br)c3)c2c1` [Compound 9, 2-((4-(3-bromophenylamino)quinazolin-6-ylamino)methyl)-4-chlorophenol] and `Oc1ccc(Br)cc1CNc1ccc2ncnc(Nc3cccc(Cl)c3)c2c1` [Compound 15, 4-bromo-2-((4-(3-chlorophenylamino)quinazolin-6-ylamino)methyl)phenol] cannot be ordered by IC50: under 1000 nM for the first, 960 ± 5 nM for the second.

`O=C(Nc1ccc2ncnc(Nc3cccc(Br)c3)c2c1)c1ccc(Cl)cc1O` [Compound 17, N-(4-(3-bromophenylamino)quinazolin-6-yl)-4-chloro-2-hydroxybenzamide] and `O=C(Nc1ccc2ncnc(Nc3cccc(Br)c3)c2c1)c1cc(Cl)ccc1O` [Compound 19, N-(4-(3-bromophenylamino)quinazolin-6-yl)-5-chloro-2-hydroxybenzamide] are within 1.5-fold of each other in IC50: 1460 ± 27 nM for the first, 1280 ± 13 nM for the second.

`O=C(Nc1ccc2ncnc(Nc3cccc(Br)c3)c2c1)c1ccc(Cl)cc1` [Compound 27, N-(4-(3-bromophenylamino)quinazolin-6-yl)-4-chlorobenzamide] showed an IC50 of 1480 ± 34 nM.

Same assay, conditions: WST-1 assay; A431, overexpression of EGFR; read-out: Cellular IC50, A431

`Oc1ccc(Cl)cc1CNc1ccc2ncnc(Nc3cccc(Br)c3)c2c1` [Compound 9, 2-((4-(3-bromophenylamino)quinazolin-6-ylamino)methyl)-4-chlorophenol] gave an IC50 of 980 ± 3 nM.

Tested on: A549 cells
Experiment: Antiproliferation WST-1 assay, A549
Assay type: cell-based, human
Settings: WST-1 assay; A549 carcinomic human alveolar basal epithelial cell; read-out: Cellular IC50, A549
Procedure: as §1

`Oc1ccc(Cl)cc1CNc1ccc2ncnc(Nc3cccc(Br)c3)c2c1` [Compound 9, 2-((4-(3-bromophenylamino)quinazolin-6-ylamino)methyl)-4-chlorophenol] and `Oc1ccc(Br)cc1CNc1ccc2ncnc(Nc3cccc(Cl)c3)c2c1` [Compound 15, 4-bromo-2-((4-(3-chlorophenylamino)quinazolin-6-ylamino)methyl)phenol] are within 1.5-fold of each other in IC50: 2370 ± 89 nM for the first, 2120 ± 22 nM for the second.

`O=C(Nc1ccc2ncnc(Nc3cccc(Br)c3)c2c1)c1ccc(Cl)cc1O` [Compound 17, N-(4-(3-bromophenylamino)quinazolin-6-yl)-4-chloro-2-hydroxybenzamide] and `O=C(Nc1ccc2ncnc(Nc3cccc(Br)c3)c2c1)c1cc(Cl)ccc1O` [Compound 19, N-(4-(3-bromophenylamino)quinazolin-6-yl)-5-chloro-2-hydroxybenzamide] are within 1.5-fold of each other in IC50: 1590 ± 35 nM for the first, 1770 ± 56 nM for the second.

Compound `O=C(Nc1ccc2ncnc(Nc3cccc(Br)c3)c2c1)c1ccc(Cl)cc1` [Compound 27, N-(4-(3-bromophenylamino)quinazolin-6-yl)-4-chlorobenzamide] has an IC50 of 1780 ± 34 nM.

Tested on: MCF-7 cells
Experiment: Antiproliferation WST-1 assay, MCF-7
Assay type: cell-based, human
Settings: Homo sapiens, MCF7, WST-1 assay; MCF-7 breast cancer, Her2/neu overexpression; read-out: Cellular IC50, MCF-7
Procedure: as §1

`Oc1ccc(Cl)cc1CNc1ccc2ncnc(Nc3cccc(Br)c3)c2c1` [Compound 9, 2-((4-(3-bromophenylamino)quinazolin-6-ylamino)methyl)-4-chlorophenol] and `Oc1ccc(Br)cc1CNc1ccc2ncnc(Nc3cccc(Cl)c3)c2c1` [Compound 15, 4-bromo-2-((4-(3-chlorophenylamino)quinazolin-6-ylamino)methyl)phenol] cannot be ordered by IC50: under 1000 nM for the first, 810 ± 33 nM for the second.

`O=C(Nc1ccc2ncnc(Nc3cccc(Br)c3)c2c1)c1ccc(Cl)cc1O` [Compound 17, N-(4-(3-bromophenylamino)quinazolin-6-yl)-4-chloro-2-hydroxybenzamide] and `O=C(Nc1ccc2ncnc(Nc3cccc(Br)c3)c2c1)c1cc(Cl)ccc1O` [Compound 19, N-(4-(3-bromophenylamino)quinazolin-6-yl)-5-chloro-2-hydroxybenzamide] are within error of each other in IC50: 1210 ± 29 nM for the first, 1120 ± 87 nM for the second.

`O=C(Nc1ccc2ncnc(Nc3cccc(Br)c3)c2c1)c1ccc(Cl)cc1` [Compound 27, N-(4-(3-bromophenylamino)quinazolin-6-yl)-4-chlorobenzamide] gave an IC50 of 1290 ± 76 nM.

Same assay, conditions: WST-1 assay; MCF-7 breast cancer, Her2/neu overexpression; read-out: Cellular IC50, MCF-7

Compound `Oc1ccc(Cl)cc1CNc1ccc2ncnc(Nc3cccc(Br)c3)c2c1` [Compound 9, 2-((4-(3-bromophenylamino)quinazolin-6-ylamino)methyl)-4-chlorophenol] has an IC50 of 770 ± 8 nM.

Tested on: not given
Experiment: not given
Settings: not given

First: Oc1ccc(Cl)cc1CNc1ccc2ncnc(Nc3cccc(Br)c3)c2c1 [Compound 9, 2-((4-(3-bromophenylamino)quinazolin-6-ylamino)methyl)-4-chlorophenol]
Second: Oc1ccc(Br)cc1CNc1ccc2ncnc(Nc3cccc(Cl)c3)c2c1 [Compound 15, 4-bromo-2-((4-(3-chlorophenylamino)quinazolin-6-ylamino)methyl)phenol]
The melting point of the first is higher: 230 to 232 °C for the first, 227 to 229 °C for the second.

Compared with `O=C(Nc1ccc2ncnc(Nc3cccc(Br)c3)c2c1)c1ccc(Cl)cc1O` [Compound 17, N-(4-(3-bromophenylamino)quinazolin-6-yl)-4-chloro-2-hydroxybenzamide], `O=C(Nc1ccc2ncnc(Nc3cccc(Br)c3)c2c1)c1cc(Cl)ccc1O` [Compound 19, N-(4-(3-bromophenylamino)quinazolin-6-yl)-5-chloro-2-hydroxybenzamide] is higher in melting point: 274 to 277 °C for the first, 304 to 306 °C for the second.

`O=C(Nc1ccc2ncnc(Nc3cccc(Br)c3)c2c1)c1ccc(Cl)cc1` [Compound 27, N-(4-(3-bromophenylamino)quinazolin-6-yl)-4-chlorobenzamide] showed a melting point of 230 to 232 °C.

Target: T1, human EGFR (Homo sapiens, UniProt P00533)
T1 construct: the cytoplasmic domain (amino acids 669-1210) of human EGFR; FLAG (DYKDDDD) (N); made in house
Experiment: EGFR kinase assay ([γ-32P] ATP, poly-Glu-Tyr)
Assay type: biochemical
Settings: phosphorylation of poly-Glu-Tyr copolymer; mean, >1 determination; read-out: Enzyme activity IC50 against EGFR kinase
Procedure: (§2) The expressed HER2 kinase and EGFR kinase were purified by anti-FLAG M2 affinity gel (Sigma-Aldrich, USA). The HER2 and EGFR kinase assays were performed using radiolabeled [γ-^32P] ATP (GEHealthcare, USA) in 96-well plates. The kinase reactions were performed in 50 mmol/L Tris-HCl, pH7.5, 5 mmol/L MnCl2, 0.01% Tween-20 and 2 mmol/L DTT containing 0.9 μCi of [γ-^32P] ATP per reaction, 50 μmol/L ATP, 5 μg/mL poly-Glu-Tyr (4:1) and 0.25 μg/mL of purified Her2 or EGFR cytoplasmic domain in a total volume of 50 μL. […] Kinase reactions were initiated by adding ATP. After the kinase reaction incubated for 10 minutes at room temperature, reactions were terminated by the addition of 10% (final concentration) trichloroacetic acid. The [γ-^32P]-phosphorylated proteins were filtered in a harvest plate (Millipore, USA) with a cell harvester (PerkinElmer, USA) and washed free of [γ-^32P] ATP with 3% phosphoric acid. The plates were dried, followed by the addition of 25 μL of MicroScintO (PerkinElmer, USA). Radioactivity was counted by a Topcount scintillation counter (PerkinElmer, USA).

T1 sequence (P00533 669-1210): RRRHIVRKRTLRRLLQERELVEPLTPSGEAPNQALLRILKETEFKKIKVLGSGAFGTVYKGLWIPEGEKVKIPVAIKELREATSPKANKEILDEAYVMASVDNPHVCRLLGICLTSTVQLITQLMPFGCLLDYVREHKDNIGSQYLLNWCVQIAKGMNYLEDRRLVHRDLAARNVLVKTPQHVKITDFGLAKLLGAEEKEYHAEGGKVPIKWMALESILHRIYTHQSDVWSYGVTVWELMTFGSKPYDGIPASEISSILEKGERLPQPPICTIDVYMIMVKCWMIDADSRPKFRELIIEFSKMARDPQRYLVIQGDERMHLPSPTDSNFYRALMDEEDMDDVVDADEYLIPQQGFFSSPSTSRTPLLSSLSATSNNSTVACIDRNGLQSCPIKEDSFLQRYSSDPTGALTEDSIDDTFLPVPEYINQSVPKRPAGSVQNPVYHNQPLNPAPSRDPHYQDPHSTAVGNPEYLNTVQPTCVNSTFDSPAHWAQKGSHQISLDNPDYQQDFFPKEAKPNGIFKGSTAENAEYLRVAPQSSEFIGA

Compared with `Oc1ccc(Cl)cc1CNc1ccc2ncnc(Nc3cccc(Br)c3)c2c1` [Compound 9, 2-((4-(3-bromophenylamino)quinazolin-6-ylamino)methyl)-4-chlorophenol], `Oc1ccc(Br)cc1CNc1ccc2ncnc(Nc3cccc(Cl)c3)c2c1` [Compound 15, 4-bromo-2-((4-(3-chlorophenylamino)quinazolin-6-ylamino)methyl)phenol] is 1.9-fold higher in IC50: 410 ± 24 nM for the first, 760 ± 73 nM for the second.

`O=C(Nc1ccc2ncnc(Nc3cccc(Br)c3)c2c1)c1ccc(Cl)cc1O` [Compound 17, N-(4-(3-bromophenylamino)quinazolin-6-yl)-4-chloro-2-hydroxybenzamide] and `O=C(Nc1ccc2ncnc(Nc3cccc(Br)c3)c2c1)c1cc(Cl)ccc1O` [Compound 19, N-(4-(3-bromophenylamino)quinazolin-6-yl)-5-chloro-2-hydroxybenzamide] are within 1.5-fold of each other in IC50: 1200 ± 71 nM for the first, 1070 ± 18 nM for the second.

`O=C(Nc1ccc2ncnc(Nc3cccc(Br)c3)c2c1)c1ccc(Cl)cc1` [Compound 27, N-(4-(3-bromophenylamino)quinazolin-6-yl)-4-chlorobenzamide] gave an IC50 of 7700 ± 88 nM.

Target: T2, human HER2 (Homo sapiens, UniProt P04626)
T2 construct: The cytoplasmic domain (amino acids 676-1255) of human HER2; FLAG (DYKDDDD) (N); made in house
Experiment: HER2 kinase assay ([γ-32P] ATP, poly-Glu-Tyr)
Assay type: biochemical
Settings: phosphorylation of poly-Glu-Tyr copolymer; mean, >1 determination; read-out: Enzyme activity IC50 against HER2 kinase
Procedure: as §2

T2 sequence (P04626 676-1255): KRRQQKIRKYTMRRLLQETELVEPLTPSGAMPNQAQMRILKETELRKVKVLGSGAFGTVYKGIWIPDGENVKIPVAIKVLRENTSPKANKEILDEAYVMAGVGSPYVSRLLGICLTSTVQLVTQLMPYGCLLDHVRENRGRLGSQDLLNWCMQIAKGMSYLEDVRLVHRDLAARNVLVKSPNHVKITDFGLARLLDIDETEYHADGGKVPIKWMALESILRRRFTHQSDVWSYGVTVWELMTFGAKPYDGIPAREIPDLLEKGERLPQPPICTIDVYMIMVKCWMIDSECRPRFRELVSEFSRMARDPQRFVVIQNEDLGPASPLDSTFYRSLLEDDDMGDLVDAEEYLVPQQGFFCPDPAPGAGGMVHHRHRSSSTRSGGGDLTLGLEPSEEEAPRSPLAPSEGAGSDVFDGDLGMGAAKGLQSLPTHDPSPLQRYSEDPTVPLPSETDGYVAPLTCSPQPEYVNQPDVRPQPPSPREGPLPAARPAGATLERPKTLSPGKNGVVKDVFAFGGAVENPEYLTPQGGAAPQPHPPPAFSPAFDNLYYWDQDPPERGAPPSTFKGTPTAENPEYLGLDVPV

Compared with `Oc1ccc(Cl)cc1CNc1ccc2ncnc(Nc3cccc(Br)c3)c2c1` [Compound 9, 2-((4-(3-bromophenylamino)quinazolin-6-ylamino)methyl)-4-chlorophenol], `Oc1ccc(Br)cc1CNc1ccc2ncnc(Nc3cccc(Cl)c3)c2c1` [Compound 15, 4-bromo-2-((4-(3-chlorophenylamino)quinazolin-6-ylamino)methyl)phenol] is 2.2-fold higher in IC50: 1700 ± 51 nM for the first, 3800 ± 2 nM for the second.

Going from `O=C(Nc1ccc2ncnc(Nc3cccc(Br)c3)c2c1)c1ccc(Cl)cc1O` [Compound 17, N-(4-(3-bromophenylamino)quinazolin-6-yl)-4-chloro-2-hydroxybenzamide] to `O=C(Nc1ccc2ncnc(Nc3cccc(Br)c3)c2c1)c1cc(Cl)ccc1O` [Compound 19, N-(4-(3-bromophenylamino)quinazolin-6-yl)-5-chloro-2-hydroxybenzamide], the IC50 falls from 2800 ± 3.1 nM to 1800 ± 9 nM (1.6-fold). The second is the more potent here.

Compound `O=C(Nc1ccc2ncnc(Nc3cccc(Br)c3)c2c1)c1ccc(Cl)cc1` [Compound 27, N-(4-(3-bromophenylamino)quinazolin-6-yl)-4-chlorobenzamide] has an IC50 of 4600 ± 226 nM.
